Source: patent US20230406865A1, “CRYSTAL FORM OF FREE BASE OF INHIBITOR CONTAINING BICYCLIC RING DERIVATIVE AND PREPARATION METHOD AND APPLICATION OF CRYSTAL FORM” (SHANGHAI HANSOH BIOMEDICAL CO., LTD., priority 2020, published 2023)
pIC50: −log10 of the molar value.

Experiments:
[1] = molecular target: T1, KDR kinase (Homo sapiens, UniProt P35968); experiment: HTRF kinase activity inhibition, KDR; type: biochemical; conditions: for pIC50: HTRF, ATP at Km; for Ratio (KDR/RET): KDR IC50 / RET IC50
T1 construct: purchased Carna 08-191
Description: 2.2 Experimental Reagents: • KDR kinase was purchased from Carna Company, and the article number was 08-191; • HTRF KinEASE-TK kit was purchased from Cisbio Company, and the article number was 62TK0PEC; • ATP was purchased from Thermofisher Company, and the article number was PV3227; • 384-well plate was purchased from PerkinElmer Company, and the article number was 6007290.
In this experiment, the homogeneous time-resolved fluorescence (HTRF) method was used for the detection of compounds on KDR kinase activity.

[2] = molecular target: T2, RET kinase (Homo sapiens, UniProt P07949); experiment: HTRF kinase activity inhibition, RET wild-type; type: biochemical; conditions: ATP at Km
T2 construct: purchased Carna 08-159
Description: 2.2 Experimental Reagents: • RET enzyme was purchased from Carna Company, and the article number was 08-159; • RET M918T enzyme was purchased from Carna Company, and the article number was 08-508; • KIF5B-RET was purchased from SignalChem Company, the article number was R02-19FG-05; • CCDC6-RET was purchased from SignalChem Company, the article number was R02-19BG-05; • RET V804M enzyme was purchased from Thermofisher Company, and the article number was PV6223; • RET V804L enzyme was purchased from Thermofisher Company, and the article number was PV4397; • HTRF KinEASE-TK kit was purchased from Cisbio Company, and the article number was 62TK0PEC; • ATP was purchased from Thermofisher Company, and the article number was PV3227; • 384-well plate was purchased from PerkinElmer Company, and the article number was 6007290.
In this experiment, a homogeneous time-resolved fluorescence (HTRF) method was used for the detection of compounds on RET kinase activity.

[3] = Balb/C mouse pharmacokinetics, oral 5 mg/kg; type: in vivo, Balb/C mice; conditions: male, p.o. 5 mg/kg, plasma
Procedure: The pharmacokinetic behavior of the following compound embodiments, administered orally at a dose of 5 mg/kg in plasma in mice, was studied using Balb/C mice as test animals.
Balb/C Mouse 6/embodiment, male, Shanghai Jiesijie Laboratory Animal Co., Ltd, Animal Production License No. (SCXK (Shanghai) 2013-0006 N0.311620400001794).
Balb/C mice, males; p.o. after overnight fasting, respectively, at a dose of 5 mg/kg, administered in a volume of 10 mL/kg.
0.5% CMC-Na (1% Tween80) was dissolved by ultrasound, and prepared into clear solution or uniform suspension.
Before and after administration, 0.1 mL of blood was collected from mice at 0, 0.5, 1, 2, 4, 6, 8 and 24 hours by orbital collection, placed in EDTA-K2 tubes, centrifuged at 6000 rpm at 4° C. for 6 minutes to separate plasma, and stored at −80° C.
2.5 Sample Handling: • 1) 40 μL of plasma sample was precipitated by adding 160 μL of acetonitrile, mixed and centrifuged at 3500×g for 5-20 minutes. • 2) 100 μL of the supernatant solution after treatment was taken to analyze the concentration of the test compound by LC/MS/MS.
2.6 Liquid Phase Analysis • Liquid phase conditions: Shimadzu LC-20AD pump • Mass spectrometry conditions: AB Sciex API 4000 mass spectrometer • Chromatographic column: phenomenex Gemiu 5 μM C18 50×4.6 mm • Mobile phase: Liquid A was 0.1% formic acid aqueous solution, liquid B was acetonitrile • Flow rate: 0.8 mL/min • Elution time: 0-4.0 minutes, the eluent was as follows:
The main pharmacokinetic parameters were calculated by WinNonlin 6.1 and the results of the mouse pharmacokinetic experiments were shown in Table 13 below.

[4] = tested on: TT cells (MTC, RET C634W); experiment: Inhibition of proliferation of TT cells (CellTiter-Glo, 72 h); type: cell-based; conditions: Homo sapiens
Procedure: TT cells were purchased from the cell bank of the Chinese Academy of Sciences.
When TT cells were cultured to the appropriate fusion level, TT cells were collected, and the cells were adjusted to the appropriate cell concentration using complete medium, and the cell suspension was spread in a 96-well plate, 90 μL per well, and placed to the wall of a 37° C., 5% CO2 incubator overnight; and compound solutions of different concentrations were prepared using DMSO and culture medium; and a solvent control was set, the compound solution was added to a 96-well plate, 10 μL per well, and placed to the wall of a 37° C., 5% CO2 incubator for 72 hours; CellTiter-Glo solution was added thereto and the mixture was mixed well by shaking, incubated for 10 minutes in the dark, and read by BioTek Synergy H1 microplate reader.
The IC50 values were obtained by using luminescence signal values to calculate the inhibition rate, the concentration and the inhibition rate were fitted to a nonlinear regression curve using Graphpad Prism software.

T2 sequence (P07949 29-1114): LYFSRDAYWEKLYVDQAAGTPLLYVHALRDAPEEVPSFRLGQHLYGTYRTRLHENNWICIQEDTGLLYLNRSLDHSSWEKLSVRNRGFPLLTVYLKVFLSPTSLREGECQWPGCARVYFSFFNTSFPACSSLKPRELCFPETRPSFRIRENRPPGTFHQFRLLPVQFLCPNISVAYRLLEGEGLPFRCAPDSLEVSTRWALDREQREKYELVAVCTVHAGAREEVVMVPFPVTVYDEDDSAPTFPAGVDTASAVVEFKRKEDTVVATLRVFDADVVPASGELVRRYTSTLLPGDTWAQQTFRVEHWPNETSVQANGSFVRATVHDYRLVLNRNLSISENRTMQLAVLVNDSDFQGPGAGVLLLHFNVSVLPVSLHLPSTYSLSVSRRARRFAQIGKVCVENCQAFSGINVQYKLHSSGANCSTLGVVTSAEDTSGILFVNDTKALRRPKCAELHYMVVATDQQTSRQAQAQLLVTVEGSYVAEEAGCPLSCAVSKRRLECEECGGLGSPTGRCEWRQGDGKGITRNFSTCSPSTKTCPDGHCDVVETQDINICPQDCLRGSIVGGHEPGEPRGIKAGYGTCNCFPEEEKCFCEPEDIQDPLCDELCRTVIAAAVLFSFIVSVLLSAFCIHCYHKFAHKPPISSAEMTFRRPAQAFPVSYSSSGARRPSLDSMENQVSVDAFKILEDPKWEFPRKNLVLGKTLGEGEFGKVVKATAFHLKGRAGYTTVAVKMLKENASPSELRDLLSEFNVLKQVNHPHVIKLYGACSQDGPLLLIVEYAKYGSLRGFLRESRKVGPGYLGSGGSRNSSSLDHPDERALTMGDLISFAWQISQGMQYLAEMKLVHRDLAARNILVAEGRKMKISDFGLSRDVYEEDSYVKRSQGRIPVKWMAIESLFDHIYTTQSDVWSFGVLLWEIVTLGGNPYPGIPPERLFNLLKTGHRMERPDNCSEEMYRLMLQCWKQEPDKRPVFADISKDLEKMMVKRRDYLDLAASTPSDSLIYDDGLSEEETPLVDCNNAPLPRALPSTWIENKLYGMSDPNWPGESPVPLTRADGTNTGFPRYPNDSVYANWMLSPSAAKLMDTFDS
T1 sequence (P35968 20-1356): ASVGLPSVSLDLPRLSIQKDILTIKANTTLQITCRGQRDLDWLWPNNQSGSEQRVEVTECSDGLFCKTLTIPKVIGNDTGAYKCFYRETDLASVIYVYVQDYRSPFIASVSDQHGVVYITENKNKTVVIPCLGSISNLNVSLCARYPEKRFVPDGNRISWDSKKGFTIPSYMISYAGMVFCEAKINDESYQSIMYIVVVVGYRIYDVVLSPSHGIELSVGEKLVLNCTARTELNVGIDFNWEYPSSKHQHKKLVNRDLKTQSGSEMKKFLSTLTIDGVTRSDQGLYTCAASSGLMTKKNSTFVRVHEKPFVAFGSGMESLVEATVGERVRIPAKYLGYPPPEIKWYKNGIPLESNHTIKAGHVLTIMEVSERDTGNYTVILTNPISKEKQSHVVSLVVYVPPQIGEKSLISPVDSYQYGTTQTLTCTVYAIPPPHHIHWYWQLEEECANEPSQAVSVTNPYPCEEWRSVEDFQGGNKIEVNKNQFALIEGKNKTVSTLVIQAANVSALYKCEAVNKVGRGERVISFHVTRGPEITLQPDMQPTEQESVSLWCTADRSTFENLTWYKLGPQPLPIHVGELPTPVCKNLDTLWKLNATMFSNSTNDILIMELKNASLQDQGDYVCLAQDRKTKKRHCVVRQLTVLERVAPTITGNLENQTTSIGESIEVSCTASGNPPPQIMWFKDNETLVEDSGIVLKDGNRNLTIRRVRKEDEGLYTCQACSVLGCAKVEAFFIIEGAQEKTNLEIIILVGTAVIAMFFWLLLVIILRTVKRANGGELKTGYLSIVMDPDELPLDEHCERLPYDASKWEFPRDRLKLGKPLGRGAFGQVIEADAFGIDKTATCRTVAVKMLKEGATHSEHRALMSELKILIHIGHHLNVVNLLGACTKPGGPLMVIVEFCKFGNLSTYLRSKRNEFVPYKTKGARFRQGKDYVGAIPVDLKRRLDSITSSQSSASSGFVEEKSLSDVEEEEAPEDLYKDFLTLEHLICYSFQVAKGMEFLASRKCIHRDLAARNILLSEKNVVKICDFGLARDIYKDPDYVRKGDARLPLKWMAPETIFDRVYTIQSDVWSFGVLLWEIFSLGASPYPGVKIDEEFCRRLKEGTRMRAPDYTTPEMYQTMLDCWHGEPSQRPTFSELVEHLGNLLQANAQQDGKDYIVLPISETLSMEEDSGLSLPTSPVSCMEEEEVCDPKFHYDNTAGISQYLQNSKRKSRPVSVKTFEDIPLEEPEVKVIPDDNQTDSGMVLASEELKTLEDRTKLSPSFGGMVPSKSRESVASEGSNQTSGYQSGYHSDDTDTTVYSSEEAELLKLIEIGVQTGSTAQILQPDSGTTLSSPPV

Structure (SMILES)	pIC50 [1]	Ratio (KDR/RET) [1]	pIC50 [2]	other results
COc1ccc(CN2C3CC2CN(c2ccc(-c4cc(OCC5(C#N)CC(F)(F)C5)cn5ncc(C#N)c45)cn2)C3)cn1 [Embodiment 57, 6-((1-Cyano-3,3-difluorocyclobutyl)methoxy)-4-(6-(6-((6-methoxypyridin-3-yl)methyl)-3,6-diazabicyclo[3.1.1]heptan-3-yl)pyridin-3-yl)pyrazolo[1,5-a]pyridine-3-carbonitrile]	6.68	187	8.96	–
CC1(NC(=O)c2ncccc2F)CCN(c2ccc(-c3cc(OCC4(C#N)CC4)cn4ncc(C#N)c34)cn2)CC1 [Embodiment 93, N-(1-(5-(3-Cyano-6-((1-cyanocyclopropyl)methoxy)pyrazolo[1,5-a]pyridin-4-yl)pyridin-2-yl)-4-methylpiperidin-4-yl)-3-fluoropicolinamide]	6.82	136	8.96	–
COc1ccc(CN2C3CC2CN(c2ccc(-c4cc(OCC5CS(=N)(=O)C5)cn5ncc(C#N)c45)cn2)C3)cn1 (stereo not shown) [Embodiment 12, 6-((1-Imino-1-hydroxy-1l6-thietan-3-yl)methoxy)-4-(6-(6-((6-methoxypyridin-3-yl)methyl)-3,6-diazabicyclo[3.1.1]heptan-3-yl)pyridin-3-yl)pyrazolo[1,5-a]pyridine-3-carbonitrile]	7.16	55	8.89	–
CC1(NC(=O)c2ncccc2Cl)CCN(c2ccc(-c3cc(N4CC(C(C)(C)O)C4)cn4ncc(C#N)c34)cn2)CC1 [Embodiment 88, 3-Chloro-N-(1-(5-(3-cyano-6-(3-(2-hydroxypropan-2-yl)azetidin-1-yl)pyrazolo[1,5-a]pyridin-4-yl)pyridin-2-yl)-4-methylpiperidin-4-yl)picolinamide]	7.21	49	8.92	–
COc1ccc(CN2C3CC2CN(c2ccc(-c4cc(N5CCC(C)(O)CC5)cn5ncc(C#N)c45)cn2)C3)cn1 [Embodiment 35, 6-(4-Hydroxy-4-methylpiperidin-1-yl)-4-(6-(6-((6-methoxypyridin-3-yl)methyl)-3,6-diazabicyclo[3.1.1]heptan-3-yl)pyridin-3-yl)pyrazolo[1,5-a]pyridine-3-carbonitrile]	8.21	13	9.31	–
COc1ccc(CN2C3CC2CN(c2ccc(-c4cc(N5CC(C)(O)C5)cn5ncc(C#N)c45)cn2)C3)cn1 [Embodiment 33, 6-(3-Hydroxy-3-methylazetidin-1-yl)-4-(6-(6-((6-methoxypyridin-3-yl)methyl)-3,6-diazabicyclo[3.1.1]heptan-3-yl)pyridin-3-yl)pyrazolo[1,5-a]pyridine-3-carbonitrile]	8.25	14	9.40	–
COc1ccc(CN2C3CC2CN(c2ccc(-c4cc(OCC5(C#N)CCC5)cn5ncc(C#N)c45)cn2)C3)cn1 [Embodiment 36, 6-((1-Cyanocyclobutyl)methoxy)-4-(6-(6-((6-methoxypyridin-3-yl)methyl)-3,6-diazabicyclo[3.1.1]heptan-3-yl)pyridin-3-yl)pyrazolo[1,5-a]pyridine-3-carbonitrile]	6.67	257	9.08	MRT ([3]; read-out: Average residence time MRT): 3.8 h; Cmax ([3]; read-out: Blood concentration Cmax): 1490 ng/mL; AUC(0-t) ([3]; read-out: Curve area AUC0-t): 6210 ng·h/mL; AUC(0-inf) ([3]; read-out: Curve area AUC0-∞): 6220 ng·h/mL; half-life ([3]; read-out: Half-life t1/2 (converted)): 2.19 h; Tmax ([3]; read-out: Peak time tmax): 0.5 h
CC1(C#N)CN(c2cc(-c3ccc(N4CCC(C)(NC(=O)c5ncccc5Cl)CC4)nc3)c3c(C#N)cnn3c2)C1 [Embodiment 96, 3-Chloro-N-(1-(5-(3-cyano-6-(3-cyano-3-methylazetidin-1-yl)pyrazolo[1,5-a]pyridin-4-yl)pyridin-2-yl)-4-methylpiperidin-4-yl)picolinamide]	7.80	22	9.14	–
CC(C)(O)C#Cc1cc(-c2ccc(N3CC4CC(C3)N4Cc3ccc(OC4CC4)nc3)nc2)c2c(C#N)cnn2c1 [Embodiment 26, 4-(6-(6-((6-Cyclopropoxypyridin-3-yl)methyl)-3,6-diazabicyclo[3.1.1]heptan-3-yl)pyridin-3-yl)-6-(3-hydroxy-3-methylbut-1-yn-1-yl)pyrazolo[1,5-a]pyridine-3-carbonitrile]	–	–	–	pIC50 [4]: 7.72
COc1ccc(CN2C3CC2CN(c2ccc(-c4cc(OCCCS(C)(=N)=O)cn5ncc(C#N)c45)cn2)C3)cn1 (stereo not shown) [Embodiment 6, 4-(6-(6-((6-Methoxypyridin-3-yl)methyl)-3,6-diazabicyclo[3.1.1]heptan-3-yl)pyridin-3-yl)-6-(3-(S-methylsulfonimidoyl)propoxy)pyrazolo[1,5-a]pyridine-3-carbonitrile]	7.56	35	9.10	–
COc1ccc(CN2C3CC2CN(c2ccc(-c4cc(OCC5(C#N)COC5)cn5ncc(C#N)c45)cn2)C3)cn1 [Embodiment 37, 6-((3-Cyanooxetan-3-yl)methoxy)-4-(6-(6-((6-methoxypyridin-3-yl)methyl)-3,6-diazabicyclo[3.1.1]heptan-3-yl)pyridin-3-yl)pyrazolo[1,5-a]pyridine-3-carbonitrile]	7.22	85	9.15	–
COc1ccc(CN2C3CC2CN(c2ccc(-c4cc(N5CCC(C)(O)C5)cn5ncc(C#N)c45)cn2)C3)cn1 (stereo not shown) [Embodiment 34, 6-(3-Hydroxy-3-methylpyrrolidin-1-yl)-4-(6-(6-((6-methoxypyridin-3-yl)methyl)-3,6-diazabicyclo[3.1.1]heptan-3-yl)pyridin-3-yl)pyrazolo[1,5-a]pyridine-3-carbonitrile]	8.33	7	9.15	–
CC1(O)CC2(CN(c3cc(-c4ccc(N5CCC(C)(NC(=O)c6ncccc6Cl)CC5)nc4)c4c(C#N)cnn4c3)C2)C1 [Embodiment 89, 3-Chloro-N-(1-(5-(3-cyano-6-(6-hydroxy-6-methyl-2-azaspiro[3.3]heptan-2-yl)pyrazolo[1,5-a]pyridin-4-yl)pyridin-2-yl)-4-methylpiperidin-4-yl)picolinamide]	8.05	8	8.96	–
COc1ccc(CN2C3CC2CN(c2ccc(-c4cc(NC(=O)C5(C#N)CC5)cn5ncc(C#N)c45)cn2)C3)cn1 [Embodiment 74, 1-Cyano-N-(3-cyano-4-(6-(6-((6-methoxypyridin-3-yl)methyl)-3,6-diazabicyclo[3.1.1]heptan-3-yl)pyridin-3-yl)pyrazolo[1,5-a]pyridin-6-yl)cyclopropane-1-carboxamide]	6.61	137	8.74	–
COc1ccc(CN2C3CC2CN(c2ccc(-c4cc(NC(=O)C(C)(C)O)cn5ncc(C#N)c45)cn2)C3)cn1 [Embodiment 42, N-(3-Cyano-4-(6-(6-((6-methoxypyridin-3-yl)methyl)-3,6-diazabicyclo[3.1.1]heptan-3-yl)pyridin-3-yl)pyrazolo[1,5-a]pyridin-6-yl)-2-hydroxy-2-methylpropanamide]	6.98	67	8.81	–
